Test results: ChEMBL document CHEMBL1138899, “Acyclic nucleoside analogues as inhibitors of Plasmodium falciparum dUTPase” (J Med Chem, 2006)

What was measured:
Plasmodium falciparum = assay: Antiplasmodial activity against Plasmodium falciparum; format: functional, organism-based
L6 = assay: Cytotoxicity against rat L6 cells; format: functional, cell-based
dUTP pyrophosphatase = target: T1, dUTP pyrophosphatase (Plasmodium falciparum 3D7, UniProt Q8II92); assay: Inhibition of Plasmodium falciparum dUTPase
T1 sequence (Q8II92 whole entry): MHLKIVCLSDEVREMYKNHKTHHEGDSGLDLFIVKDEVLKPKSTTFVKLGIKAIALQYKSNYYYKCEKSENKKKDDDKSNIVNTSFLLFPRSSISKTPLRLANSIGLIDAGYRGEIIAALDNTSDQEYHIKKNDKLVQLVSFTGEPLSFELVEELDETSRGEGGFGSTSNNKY

[1] = target: T2, Deoxyuridine 5'-triphosphate nucleotidohydrolase, mitochondrial (Homo sapiens, UniProt P33316); assay: Inhibition of human recombinant dUTPase
T2 sequence (P33316 whole entry): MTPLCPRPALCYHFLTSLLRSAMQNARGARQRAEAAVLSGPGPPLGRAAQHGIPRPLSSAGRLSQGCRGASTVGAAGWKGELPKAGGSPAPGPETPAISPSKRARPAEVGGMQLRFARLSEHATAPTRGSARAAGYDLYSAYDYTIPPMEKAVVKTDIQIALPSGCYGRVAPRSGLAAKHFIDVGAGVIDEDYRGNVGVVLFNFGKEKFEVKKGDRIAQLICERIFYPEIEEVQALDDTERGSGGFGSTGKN

[2] = target: T3, dUTP pyrophosphatase (Plasmodium falciparum 3D7) (UniProt Q8II92); assay: Selectivity index, human dUTPase/Plasmodium falciparum dUTPase
T3 sequence (whole entry): T1 sequence (Q8II92 whole entry)

[3] = Intrinsic clearance in human liver microsome; format: ADME; settings: liver microsomes
[4] = Stability in simulated gastric fluid after 5 mins; format: ADME; settings: read-out: Stability
[5] = Stability in simulated gastric fluid after 150 mins; format: ADME; settings: read-out: Stability
[6] = Stability in simulated gastric fluid after 0.2 mins; format: ADME; settings: read-out: Stability

IC50 (Plasmodium falciparum) [µM]	Ki (dUTP pyrophosphatase) [µM]	Ki [1] [µM]	remaining at 2.5 h [5] [%]	SMILES	IC50 (L6) [µM]	Selectivity index [2]	microsomal CLint [3] [µL/min/mg]	remaining at 5 min [4] [%]	remaining at 12 s [6] [%]
0.64	23	> 1000	–	[N-]=[N+]=NCC(CCOC(c1ccccc1)(c1ccccc1)c1ccccc1)Cn1ccc(=O)[nH]c1=O (configuration not stated)	18	–	–	–	–
> 18	9.2	898	–	O=C(OCCCn1ccc(=O)[nH]c1=O)c1ccccc1	–	> 97	–	–	–
0.9	0.7	17	–	O=c1ccn(COCCOC(c2ccccc2)(c2ccccc2)c2ccccc2)c(=O)[nH]1	39	25	96	–	–
3.8	–	> 1000	94	O=c1ccn(CCCCNC(c2ccccc2)(c2ccccc2)c2ccccc2)c(=O)[nH]1	33	> 1110	64	–	–
2	–	457	–	O=c1ccn([C@H]2C[C@H](F)[C@@H](COC(c3ccccc3)(c3ccccc3)c3ccccc3)O2)c(=O)[nH]1	–	–	–	–	–
0.9	2.5	> 1000	–	CC(C)(C)OC(=O)NCC(CCn1ccc(=O)[nH]c1=O)COC(c1ccccc1)(c1ccccc1)c1ccccc1 (configuration not stated)	–	–	–	–	–
3.5	1.2	5.2	–	O=c1ccn(C/C=C\COC(c2ccccc2)(c2ccccc2)c2ccccc2)c(=O)[nH]1	39	4	–	–	–
1.9	0.9	21	–	O=c1ccn(CC(CCO)COC(c2ccccc2)(c2ccccc2)c2ccccc2)c(=O)[nH]1 (configuration not stated)	57	–	–	–	–
3.2	0.24	5.7	–	O=c1ccn(CCC(CO)CNC(c2ccccc2)(c2ccccc2)c2ccccc2)c(=O)[nH]1 (configuration not stated)	55	–	–	–	–
12	> 1000	> 1000	–	OC(c1ccccc1)(c1ccccc1)c1ccccc1 [TRIPHENYLMETHANOL]	–	–	–	–	–
3.9	8.5	> 1000	–	CC(C)(C)[Si](OCCCCCCn1ccc(=O)[nH]c1=O)(c1ccccc1)c1ccccc1	18	> 118	–	–	–
1.2	2.2	260	–	O=c1ccn(CC(CO)CCOC(c2ccccc2)(c2ccccc2)c2ccccc2)c(=O)[nH]1 (configuration not stated)	33	–	–	–	–
3.7	0.6	> 1000	–	O=c1ccn(C/C=C/COC(c2ccccc2)(c2ccccc2)c2ccccc2)c(=O)[nH]1	34	> 1670	–	–	–
38	224	496	–	O=C(OCCCCn1ccc(=O)[nH]c1=O)c1ccccc1	–	2	–	–	–
2.8	1.3	74	–	CC(=O)OCC(CCn1ccc(=O)[nH]c1=O)CNC(c1ccccc1)(c1ccccc1)c1ccccc1 (configuration not stated)	37	–	–	–	–

More lines, now with the values behind:

SMILES	IC50 (Plasmodium falciparum) [µM]	Ki (dUTP pyrophosphatase) [µM]	Ki [1] [µM]	remaining at 2.5 h [5] [%]	IC50 (L6) [µM]	Selectivity index [2]	microsomal CLint [3] [µL/min/mg]	remaining at 5 min [4] [%]	remaining at 12 s [6] [%]
CC(C)(C)[Si](C)(C)O	> 37	–	–	–	> 680	–	–	–	–
O=c1ccn(CCCCOC(c2ccccc2)(c2ccccc2)c2ccccc2)c(=O)[nH]1	4.9	1.6	> 1000	–	42	> 617	68	2	–
O=c1ccn(CCCCCO[Si](c2ccccc2)(c2ccccc2)c2ccccc2)c(=O)[nH]1	0.38	3.8	> 1000	–	47	> 265	–	–	–
O=c1ccn(CCCCCCNC(c2ccccc2)(c2ccccc2)c2ccccc2)c(=O)[nH]1	1.1	1.8	> 1000	–	40	> 543	–	–	–
O=c1ccn(CCCCCCO)c(=O)[nH]1	19	> 1000	636	–	–	–	–	–	–
O=c1ccn([C@H]2C[C@H](O)[C@@H](COC(c3ccccc3)(c3ccccc3)c3ccccc3)O2)c(=O)[nH]1	6	–	18	–	192	10	–	–	–
O[Si](c1ccccc1)(c1ccccc1)c1ccccc1	0.65	> 1000	> 1000	–	138	–	–	–	–
O=c1ccn([C@H]2C[C@H](O)[C@@H](CNC(c3ccccc3)(c3ccccc3)c3ccccc3)O2)c(=O)[nH]1	4.5	–	46	–	44	–	–	–	–
O=C(OCCCCCCn1ccc(=O)[nH]c1=O)c1ccccc1	3.4	32	> 1000	–	–	> 31	–	–	–
O=c1ccn(CCCO[Si](c2ccccc2)(c2ccccc2)c2ccccc2)c(=O)[nH]1	0.58	1.6	25	–	70	16	–	–	–
O=c1ccn([C@H]2C[C@H](O)[C@@H](CO[Si](c3ccccc3)(c3ccccc3)c3ccccc3)O2)c(=O)[nH]1	1.1	–	–	–	–	–	–	–	–
O=c1ccn(CCCO)c(=O)[nH]1	> 29	368	> 1000	–	–	> 2	–	–	–
CC(C)(C)OC(=O)NCCCCn1ccc(=O)[nH]c1=O	17	112	> 1000	–	–	> 8	–	–	–
O=c1ccn(CCCCO[Si](c2ccccc2)(c2ccccc2)c2ccccc2)c(=O)[nH]1	0.36	2.2	> 1000	–	–	> 446	69	–	< 2
CC(C)(C)[Si](C)(C)OCCOCn1ccc(=O)[nH]c1=O	62	44	63	–	> 299	1.4	–	–	–
O=c1ccn(CCCCCNC(c2ccccc2)(c2ccccc2)c2ccccc2)c(=O)[nH]1	2.2	–	> 1000	–	39	> 233	–	–	–
O=c1ccn(CCCCCCOC(c2ccccc2)(c2ccccc2)c2ccccc2)c(=O)[nH]1	2.3	9.6	476	–	44	50	–	–	–
CC(C)(C)[Si](C)(C)OCCCn1ccc(=O)[nH]c1=O	> 18	73	73	–	192	1	–	–	–
O=c1ccn(CCCCCO)c(=O)[nH]1	20	> 1000	> 1000	–	> 454	–	–	–	–
O=C(NCCCCn1ccc(=O)[nH]c1=O)OCc1ccccc1	15	17	> 1000	–	–	> 60	–	–	–
O=c1ccn(CCCCCOC(c2ccccc2)(c2ccccc2)c2ccccc2)c(=O)[nH]1	1.1	2	> 1000	–	24	> 500	–	–	–
O=c1ccn(CCCNC(c2ccccc2)(c2ccccc2)c2ccccc2)c(=O)[nH]1	4.4	0.2	1.4	–	107	7	–	–	–
O=c1ccn(CCCOC(c2ccccc2)(c2ccccc2)c2ccccc2)c(=O)[nH]1	7.5	87	313	–	34	4	–	–	–
O=C(OCCOCn1ccc(=O)[nH]c1=O)c1ccccc1	127	98	311	–	202	3	–	–	–
O=c1ccn(CCCCO)c(=O)[nH]1	235	> 1000	> 1000	–	–	–	–	–	–
O=c1ccn(CCCCCCO[Si](c2ccccc2)(c2ccccc2)c2ccccc2)c(=O)[nH]1	0.46	1.7	383	–	50	227	35	–	< 2
